Laboratory results: patent US6395906B1, “Intermediates to pesticidal 1-arylpyrazoles” (Rhone-Poulenc Inc., priority 1995, dated 2002)

How the values were obtained:
Assay type in all cases: in vivo
[1] = system: western corn rootworm (Diabrotica virgifera virgifera); experiment: Western corn rootworm (WCRW) soil test; conditions: soil concentration 0.15 or 0.5 ppm; neonate larvae, mortality six days after infestation
Procedure: (§1) For the tick, aphids, souther armyworm, tobacco budworm, house fly, Mexican bean beetle, American cockroach, cat flea, souther corn rootworm, western corn rootworm, black cutworm, and southern root-knot nematode, a solution or suspension was prepared by adding the test compound to a solution of dimethylformamide, acetone, emulsifiers which are alkylaryl polyether alcohols organic sulfonates, and water. The result was a 100 or 500 ppm concentration of the test compound.
For the western corn rootworm test, the water-acetone-DMF-emulsifier solution was adjusted for a treatment rate of 0.15 or 0.5 ppm.
Western corn rootworm (WCRW): The 500 ppm test formulation was applied to dry sandy loam soil contained in a glass jar for a soil concentration of 0.15 or 0.5 ppm. As an untreated control, an aliquot of a water-acetone-DMF-emulsifier solution containing no test compound was applied in a similar manner. After incubating covered for 24 hours, the soil was mixed and four germinated corn seedlings were added to the jar. Ten neonate western corn rootworm larvae were placed in the jar. Six days after infestation, mortality was assessed by Berlese funnel extraction.

[2] = system: cotton aphid (Aphis gossypii); experiment: Cotton aphid (CA) foliar spray test; conditions: cotton plants wet to runoff, 100 or 500 ppm; dead aphids counted after three days
Procedure: as §1
Buckthorn aphid (BA) or cotton aphid (CA): Adult and nymphal stages of buckthorn or cotton aphid were reared on potted dwarf nasturtium or cotton plants, respectively. Plants infested with 100-150 aphids were wet to runoff with the 100 or 500 ppm test compound formulation. As an untreated control, a water-acetone-DMF-emulsifier solution containing no test compound was also applied to runoff to infested plants. The treated plants were stored for one day for buckthorn aphid and three days for cotton aphid, after which the dead aphids were counted.

[3] = system: southern armyworm (Spodoptera eridania); experiment: Southern armyworm (SAW) treated bean leaf test; conditions: bean leaves, 100 or 500 ppm; second instar larvae, five days
Procedure: as §1
Southern armyworm (SAW), Mexican bean beetle (MBB): Bean leaves were wet to runoff with the 100 or 500 ppm test compound formulation. As an untreated control, a water-acetone-DMF-emulsifier solution containing no test compound was also applied wet to runoff to bean leaves. Five or six randomly selected second instar southern armyworn larvae or Mexican bean bettle larvae were introduced into each plastic container with the dry treated leaves. The container was closed and held for five days. Larvae which were unable to move the length of the body, even upon stimulation by prodding, were considered dead.

[4] = system: house fly (Musca domestica); experiment: House fly (HF) bait test; conditions: sucrose bait, 100 or 250 ppm; adult flies, mortality after 24 hours
Procedure: as §1
For house fly tests, the water-acetone-DMF-emulsifier solution was adjusted with a 20% by weight aqueous solution of sucrose to provide a final 100 or 250 ppm concentration of the test compound.
House fly (HF): Four to six day old adult house flies were used. The files were immobilized by anesthetizing with carbon dioxide. A bait cup was prepared which contained the 100 or 250 ppm test compound formulation/sucrose solution and one or two absorbent cotton pad(s). As an untreated control, a water-acetone-DMF-emulsifier-sucrose solution containing no test compound was applied in a similar manner. The bait cup was introduced inside the cage prior to admitting 12-25 anesthetized flies. Mortality was assessed after 24 hours.

[5] = system: southern corn rootworm (Diabrotica undecimpunctata howardi); experiment: Southern corn rootworm (SCRW) soil test; conditions: soil concentration 2.5, 5, 6.75 or 10 ppm; mortality eight days after infestation
Procedure: as §1
For southern corn rootworm and black cutworm tests, the water-acetone-DMF-emulsifier solution was adjusted for a treatment rate of 2.5, 5, 6.75 or 10 ppm.
Southern corn rootworm (SCRW), Black cutworm (BCW): Corn seeds were placed in a glass jar and covered with dry sandy loam soil. The 500 ppm test formulation was applied for a soil concentration of 2.5, 5, 6.75 or 10 ppm. As an untreated control, an aliquot of a water-acetone-DMF-emulsifier solution containing no test compound was applied in a similar manner. After incubating covered for 24 hours, the soil was mixed and inoculated with approximately 25 southern corn rootworm eggs. Following an additional 48 hours, two late second to early third instar black cutworms were placed in the jar with a portion of insect diet. Eight days after infestation, mortality was assessed visually for cutworm and by Berlese funnel extraction for rootworm.

[6] = system: tobacco budworm (Heliothis virescens); experiment: Tobacco budworm (TBW) treated cotton leaf test; conditions: cotton leaves, 100 ppm; second instar larvae, five days
Procedure: as §1
Tobacco budworm (TBW): Cotton leaves were wet to runoff with the 100 ppm test compound formulation. As an untreated control, a water-acetone-DMF-emulsifier solution containing no test compound was also applied wet to runoff to cotton leaves. Ten randomly selected second instar tobacco budworm larvae were introduced into plastic containers in which moist dental wicks and the dry treated leaves had been placed. The cups were closed and held for five days. Larvae which were unable to move the length of the body, even upon stimulation by prodding, were considered dead.

[7] = system: American cockroach (Periplaneta americana); experiment: American cockroach (ACR) treated food pellet test; conditions: food pellets with 500 ppm formulation; nymphs, contact and feeding mortality 1 and 5 days after infestation
Procedure: as §1
American cockroach (ACR): Cat food or dog food pellets were added to jars containing 1-2 mls of the 500 ppm test formulation. As an untreated control, an aliquot of a water-acetone-DMF-emulsifier solution containing no test compound was applied in a similar manner. After 48 hours, roach nymphs were added to the jar. Contact and feeding mortally was assessed 1 and 5 days after infestation.

[8] = system: southern root-knot nematode (Meloidogyne incognita); experiment: Southern root-knot nematode (SRKN) soil test; conditions: soil treatment 23 kg/ha; tomato or cotton root galling rated after 2-3 weeks
Procedure: as §1
For the southern root-knot nematode tests, the water-acetone-DMF-emulsifier solution was adjusted for a treatment rate of 23 kg/ha soil concentration.
Southern root-knot nematode (SRKN): Eggs and second stage juveniles (J2s) of southern root-knot nematodes were obtained from infected roots of reared tomato plants. Pots containing moist soil were treated with the test compound solution for a treatment rate of 23 kg/ha. As an untreated control, an aliquot of a water-acetone-DMF-emulsifier solution containing no test compound was applied in a similar manner. Immediately after treatment, eggs or J2s of southern root-knot nematode were added to the treated soil. For test with cotton, the seeds were placed on top of the soil the day of treatment and inoculation. For the tests with tomato, the seedlings were transplanted in the pot three days after treatment. The pots were kept in the greenhouse for 2-3 weeks. At the termination of the test, roots of the tomato or cotton seedlings were evaluated for galling on a rating scale from 1 to 5 with one equal to severe galling, relative to untreated control, and five to no galling, i.e., complete control.

Row | Compound | WCRW [1] | CA [2] | SAW [3] | HF [4] | SCRW [5] | TBW [6] | ACR [7] | SRKN [8]
1 | N#Cc1nn(-c2c(Cl)cc(C(F)(F)F)cc2Cl)c(C=O)c1SC(F)(F)F [Compound 2, 3-Cyano-1-(2,6-dichloro-4-trifluoromethylphenyl)-5-formyl-4-trifluoromethylthiopyrazole] | + (active against 1 or more insects described above up to 100% mortality. This activity is indicated by a “+”) | – | – | – | – | – | – | –
2 | COC(OC)c1c(SC(F)(F)F)c(C#N)nn1-c1c(Cl)cc(C(F)(F)F)cc1Cl [Compound 4, 3-Cyano-1-(2,6-dichloro-4-trifluoromethylphenyl)-5-dimethoxymethyl-4-trifluoromethylthiopyrazole] | + (active against 1 or more insects described above up to 100% mortality. This activity is indicated by a “+”) | – | – | – | – | – | – | –
3 | COC(C#N)c1c(SC(F)(F)F)c(C#N)nn1-c1c(Cl)cc(C(F)(F)F)cc1Cl (stereo not shown) [Compound 6, 3-Cyano-5-{(1-cyano-1-methoxy)methyl}-1-(2,6-dichloro-4-trifluoromethylphenyl)-4-trifluoromethylthiopyrazole] | + (active against 1 or more insects described above up to 100% mortality. This activity is indicated by a “+”) | + (active against 1 or more insects described above up to 100% mortality. This activity is indicated by a “+”) | + (active against 1 or more insects described above up to 100% mortality. This activity is indicated by a “+”) | + (active against 1 or more insects described above up to 100% mortality. This activity is indicated by a “+”) | + (active against 1 or more insects described above up to 100% mortality. This activity is indicated by a “+”) | – | – | –
4 | CN(C)N=Cc1c(SC(F)(F)F)c(C#N)nn1-c1c(Cl)cc(C(F)(F)F)cc1Cl [Compound 11, 3-Cyano-1-(2,6-dichloro-4-trifluoromethylphenyl)-5-(N,N-dimethylaminoiminomethylidenyl)-4-trifluoromethylthiopyrazole] | + (active against 1 or more insects described above up to 100% mortality. This activity is indicated by a “+”) | – | – | + (active against 1 or more insects described above up to 100% mortality. This activity is indicated by a “+”) | + (active against 1 or more insects described above up to 100% mortality. This activity is indicated by a “+”) | – | – | –
5 | COC(OC)c1c([S+]([O-])C(F)(F)F)c(C#N)nn1-c1c(Cl)cc(C(F)(F)F)cc1Cl (stereo not shown) [Compound 13, 3-Cyano-1-(2,6-dichloro-4-trifluoromethylphenyl)-5-dimethoxymethyl-4-trifluoromethylsulfinylpyrazole] | + (active against 1 or more insects described above up to 100% mortality. This activity is indicated by a “+”) | + (active against 1 or more insects described above up to 100% mortality. This activity is indicated by a “+”) | – | – | – | + (active against 1 or more insects described above up to 100% mortality. This activity is indicated by a “+”) | + (active against 1 or more insects described above up to 100% mortality. This activity is indicated by a “+”) | + (active against 1 or more insects described above up to 100% mortality. This activity is indicated by a “+”)
6 | COC(OC)c1c(S(=O)(=O)C(F)(F)F)c(C#N)nn1-c1c(Cl)cc(C(F)(F)F)cc1Cl [Compound 15, 3-Cyano-1-(2,6-dichloro-4-trifluoromethlphenyl)-5-dimethoxymethyl-4-trifluoromethylsulfonylpyrazole] | + (active against 1 or more insects described above up to 100% mortality. This activity is indicated by a “+”) | + (active against 1 or more insects described above up to 100% mortality. This activity is indicated by a “+”) | + (active against 1 or more insects described above up to 100% mortality. This activity is indicated by a “+”) | + (active against 1 or more insects described above up to 100% mortality. This activity is indicated by a “+”) | + (active against 1 or more insects described above up to 100% mortality. This activity is indicated by a “+”) | – | + (active against 1 or more insects described above up to 100% mortality. This activity is indicated by a “+”) | + (active against 1 or more insects described above up to 100% mortality. This activity is indicated by a “+”)
7 | COC(C#N)c1c(S(=O)(=O)C(F)(F)F)c(C#N)nn1-c1c(Cl)cc(C(F)(F)F)cc1Cl (stereo not shown) [Compound 16, 3-Cyano-5-{(1-cyano-1-methoxy)methyl}-1-(2,6-dichloro-4-trifluoromethylphenyl)-4-trifluoromethylsulfonylpyrazole] | + (active against 1 or more insects described above up to 100% mortality. This activity is indicated by a “+”) | – | + (active against 1 or more insects described above up to 100% mortality. This activity is indicated by a “+”) | + (active against 1 or more insects described above up to 100% mortality. This activity is indicated by a “+”) | + (active against 1 or more insects described above up to 100% mortality. This activity is indicated by a “+”) | + (active against 1 or more insects described above up to 100% mortality. This activity is indicated by a “+”) | + (active against 1 or more insects described above up to 100% mortality. This activity is indicated by a “+”) | –
